Key:
Botrytis Cinerea = assay: Botrytis cinerea / tomato / preventive; assay type: in vivo; settings: 72 h, preventive spray, tomato plants cv. Roter Gnom, assessed 3 days after inoculation, read-out: inhibit fungal infestation
Method: (§1) Botrytis Cinerea/Tomato/Preventive (Action Against Botrytis on Tomato) 4 weeks old tomato plants cv. Roter Gnom are treated with the formulated test compound in a spray chamber. Two days after application tomato plants are inoculated by spraying a spore suspension on the test plants. After an incubation period of 3 days at 20° C. and 95% r. h. in a greenhouse the disease incidence is assessed.

[1] = system: Magnaporthe Grisea (Pyricularia Oryzae); assay: whole plant or invertebrate; assay type: in vivo; settings: 144 h, read-out: inhibit fungal infestation
Uncinula Necator = assay: Uncinula necator / grape / preventive (powdery mildew); assay type: in vivo; settings: Erysiphe necator, 168 h, preventive spray, grape seedlings cv. Gutedel, assessed 7 days after inoculation, read-out: inhibit fungal infestation
Method: Uncinula Necator/Grape/Preventive (Action Against Powdery Mildew on Grape) 5 weeks old grape seedlings cv. Gutedel are treated with the formulated test compound in a spray chamber. One day after application grape plants are inoculated by shaking plants infected with grape powdery mildew above the test plants. After an incubation period of 7 days at 24° C./22° C. and 70% r. h. under a light regime of 14/10 h (light/dark) the disease incidence is assessed.

Alternaria Solani = assay: Alternaria solani / tomato / preventive; assay type: in vivo; settings: 96 h, preventive spray, tomato plants cv. Roter Gnom, assessed 4 days after inoculation, read-out: inhibit fungal infestation
Method: as §1, with “Alternaria Solani/Tomato/Preventive” for “Botrytis Cinerea/Tomato/Preventive”, “Alternaria” for “Botrytis”, “4” for “3”, “22° C./18°” for “20°”

Septoria Tritici = assay: Septoria tritici / wheat / preventive (Septoria leaf spot); assay type: in vivo; settings: Zymoseptoria tritici, preventive spray, wheat plants cv. Riband, assessed 16-18 days after inoculation, read-out: inhibits fungal infestation
Method: Septoria Tritici/Wheat/Preventive (Action Against Septoria Leaf Spot on Wheat) 2 weeks old wheat plants cv. Riband are treated with the formulated test compound in a spray chamber. One day after application wheat plants are inoculated by spraying a spore suspension (10^6 conidia/ml) on the test plants. After an incubation period of 1 day at 22° C./21° C. and 95% r. h. plants are kept at 22° C./21° C. and 70% r.h. in a greenhouse. The disease incidence is assessed 16-18 days after inoculation.

Puccinia Recondita = assay: Puccinia recondita / wheat / preventive (brown rust); assay type: in vivo; settings: 264 h, preventive spray, wheat plants cv. Arina, assessed 11 days after inoculation, read-out: inhibits fungal infestation
Method: Puccinia Recondita/Wheat/Preventive (Action Against Brown Rust on Wheat) 1 week old wheat plants cv. Arina are treated with the formulated test compound in a spray chamber. One day after application wheat plants are inoculated by spraying a spore suspension ([…] uredospores/ml) on the test plants. After an incubation period of 1 day at 20° C. and 95% r. h. plants are kept for 10 days 20° C./18° C. (day/night) and 60% r.h. in a greenhouse. The disease incidence is assessed 11 days after inoculation.

[2] = system: Pyrenophora Teres (Helminthosporium Teres); assay: Pyrenophora teres (Helminthosporium teres) / barley / preventive (net blotch); assay type: in vivo; settings: 96 h, preventive spray, barley plants cv. Regina, assessed 4 days after inoculation, read-out: inhibit fungal infestation
Method: Pyrenophora Teres (Helminthosporium Teres)/Barley/Preventive (Action Against Net Blotch on Barley) 1-week-old barley plants cv. Regina are treated with the formulated test compound in a spray chamber. Two days after application barley plants are inoculated by spraying a spore suspension (2.6×10^4 conidia/ml) on the test plants. After an incubation period of 4 days at 20° C. and 95% r. h. the disease incidence is assessed.

Row | SMILES | inhibition at 200 ppm (Botrytis Cinerea) [%] | inhibition at 200 ppm [1] [%] | inhibition at 200 ppm (Uncinula Necator) [%] | melting point [°C] | inhibition at 200 ppm (Alternaria Solani) [%] | inhibition at 200 ppm (Septoria Tritici) [%] | inhibition at 200 ppm (Puccinia Recondita) [%] | inhibition at 200 ppm [2] [%]
1 | COc1nnc(C)c(-c2ccc3ccccc3c2)c1-c1c(F)cccc1Cl [I.ae.079, 4-(2-chloro-6-fluorophenyl)-3-methoxy-6-methyl-5-naphthalen-2-yl-pyridazine] | ≥ 80 | ≥ 80 | ≥ 80 | 182 to 184 | – | – | – | –
2 | Cc1nnc(C)c(-c2c(F)cccc2Cl)c1-c1ccc2ccccc2c1 [I.ae.080, 4-(2-chloro-6-fluorophenyl)-3,6-dimethyl-5-naphthalen-2-yl-pyridazine] | – | ≥ 80 | – | 120 to 123 | ≥ 80 | ≥ 80 | – | –
3 | Cc1n[nH]c(=O)c(-c2c(F)cc(F)cc2F)c1-c1ccc2ccccc2c1 [I.ae.196, 6-methyl-5-naphthalen-2-yl-4-(2,4,6-trifluorophenyl)-2H-pyridazin-3-one] | – | – | – | 266 to 268 | – | – | – | –
4 | Cc1nnc(F)c(-c2c(F)cc(F)cc2F)c1-c1ccc2ccccc2c1 [I.ae.197, 3-fluoro-6-methyl-5-naphthalen-2-yl-4-(2,4,6-trifluorophenyl)-pyridazine] | ≥ 80 | ≥ 80 | – | 108 to 110 | – | ≥ 80 | ≥ 80 | ≥ 80
5 | Cc1nnc(Cl)c(-c2c(F)cc(F)cc2F)c1-c1ccc2ccccc2c1 [I.ae.198, 3-chloro-6-methyl-5-naphthalen-2-yl-4-(2,4,6-trifluorophenyl)-pyridazine] | ≥ 80 | ≥ 80 | ≥ 80 | 86 to 89 | ≥ 80 | ≥ 80 | ≥ 80 | ≥ 80
6 | COc1nnc(C)c(-c2ccc3ccccc3c2)c1-c1c(F)cc(F)cc1F [I.ae.199, 3-methoxy-6-methyl-5-naphthalen-2-yl-4-(2,4,6-trifluorophenyl)-pyridazine] | ≥ 80 | – | ≥ 80 | 138 to 140 | ≥ 80 | – | – | ≥ 80
